Where a SMILES comes first, the peptide text is derived from it. The star is where a group is joined. Cbz = O=C(OCc1ccccc1)*

The first assay addresses T1, MDMX (Homo sapiens, UniProt O15151).
T1 construct: endogenous in cells; host or cells: WERI-Rb-1 (ATCC)
T1 sequence (O15151 1-490): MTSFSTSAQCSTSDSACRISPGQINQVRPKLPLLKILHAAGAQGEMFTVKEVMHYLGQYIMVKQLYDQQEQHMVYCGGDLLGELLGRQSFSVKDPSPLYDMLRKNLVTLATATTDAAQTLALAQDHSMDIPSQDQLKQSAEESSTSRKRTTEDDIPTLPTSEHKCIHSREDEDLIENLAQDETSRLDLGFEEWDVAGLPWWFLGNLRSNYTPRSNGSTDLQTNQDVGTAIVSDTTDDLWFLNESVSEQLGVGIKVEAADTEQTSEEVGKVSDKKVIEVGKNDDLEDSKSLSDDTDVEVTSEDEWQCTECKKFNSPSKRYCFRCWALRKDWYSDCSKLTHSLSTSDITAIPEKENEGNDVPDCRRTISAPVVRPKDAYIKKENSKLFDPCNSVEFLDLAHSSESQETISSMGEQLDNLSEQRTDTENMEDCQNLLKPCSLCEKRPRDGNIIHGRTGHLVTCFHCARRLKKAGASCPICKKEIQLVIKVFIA
In words: MDMX degradation by western blot. In kind it is cell-based. To be noted: 200 nM Nano-MP@PSI, 12-hour preincubation of inhibitor. From the text: The protein fraction of cell lysates was resolved by 10%SDS/PAGE before membrane
transfer. Primary antibodies were from Santa Cruz Biotechnology (p53), Abcam (p73), Proteintech
(MDMX，p21, GAPDH); secondary antibodies conjugated with horseradish peroxidase were from […]
On to `CCN(CC)CCCC(C)Nc1ccnc2cc(Cl)ccc12` (stereo not drawn) [chloroquine], for which the “Effect on MDMX degradation by Nano-MP@PSI” value (shortened to “Effect on MDMX degradation”) was “neither a chloroquine (a lysosome inhibitor) nor NH4Cl (an autophagy inhibitor) had any effect”.

For `Cl.N` [NH4Cl], the “Effect on MDMX degradation” value is given as “neither a chloroquine (a lysosome inhibitor) nor NH4Cl (an autophagy inhibitor) had any effect”.

For `CC(C)C[C@@H](C=O)NC(=O)[C@H](CC(C)C)NC(=O)[C@H](CC(C)C)NC(=O)OCc1ccccc1` [MG132] (Cbz-Leu-Leu-Leu-aldehyde), the “Effect on MDMX degradation” value is recorded as “totally inhibits”.

Take `CCOC(=O)c1ccc(N2NC(=O)/C(=C/c3ccc([N+](=O)[O-])o3)C2=O)cc1` [PYR41]: the “Effect on MDMX degradation” value is on record as “totally inhibits”.

The test system of a further assay is WERI-Rb-1 cells. Briefly: Cell uptake analysis by flow cytometry (FITC-labelled). The assay is classed as cell-based. To be noted: pH 6.5; 3 mM Amiloride, 2 μM cytochalasin D. A general note: In flow cytometry, cells or beads pass a laser one at a time.
Turning to `C=C1[C@@H](C)[C@H]2[C@H](Cc3ccccc3)NC(=O)[C@]23[C@H](OC(C)=O)/C=C/[C@@](C)(O)C(=O)[C@@H](C)C/C=C/[C@H]3[C@@H]1O` [cytochalasin D], the “Effect of preincubation on Nano-FITCMG@PSI internalization” value is “suppressed”.

As to `N=C(N)NC(=O)c1nc(Cl)c(N)nc1N` [Amiloride], the “Effect of preincubation on Nano-FITCMG@PSI internalization” value is “suppressed”.

Values taken from paper PMC8171083, “A nano-predator of pathological MDMX construct by clearable supramolecular gold(I)-thiol-peptide complexes achieves safe and potent anti-tumor activity” (Theranostics, 2021).
